One data set addresses T1, TEM-1 (Escherichia coli, UniProt P62593).
T1 construct: made in house
The data set can be described thus: SBL inhibition, TEM-1. In kind it is biochemical. Conditions: read-out: residual activity TEM-1. Here is the method: (§1) Inhibition analyses against bacterial MBLs and SBLs were performed as described previously.[22], [24], [26] Residual enzyme activities were determined for a range of inhibitor concentrations. Non-linear regression fitting of IC50 curves was carried out using a three-parameter dose–response curve in GraphPad Prism. Errors in IC50 values are expressed as: σ(logIC50)/logIC50×IC50
(§2) We first screened the inhibitors against a representative set of presently clinically important and other MBLs[22], comprising both Class B1 enzymes (NDM-1, New Delhi MBL-1; VIM-2, Verona integron–encoded MBL-2; BcII, Bacillus cereus II MBL; SPM-1, São Paulo MBL-1; IMP-1, imipenemase MBL-1) and the Class B2 MBL CphA (carbapenem hydrolysing MBL from Aeromonas hydrophila).[22] The latter MBL (CphA) only utilises one active site Zn(II) ion in catalysis, whilst the others normally use two Zn(II) ions. We also screened the inhibitors against a representative panel of SBLs from different classes (TEM-1, Temoneira β-lactamase-1, class A; CTX-M-15, cefotaxime hydrolysing β-lactamase from Munich 15, class A, extended spectrum β-lactamase (ESBL); AmpC E. coli, class C, and OXA-10, oxacillinase-10, class D).
(§3) Figure S1. Residual activities of serine-β-lactamases (SBLs) upon inhibition by rhodanines and enethiols at
(§4) Inhibition of intact rhodanine on a panel of SBLs
(§5) Inhibition of intact rhodanine amide on a panel […]

The target in a further data set is T2, CTX-M-15 (Escherichia coli, UniProt Q9EXV5).
T2 construct: made in house
T2 sequence (Q9EXV5 29-291, species assumed): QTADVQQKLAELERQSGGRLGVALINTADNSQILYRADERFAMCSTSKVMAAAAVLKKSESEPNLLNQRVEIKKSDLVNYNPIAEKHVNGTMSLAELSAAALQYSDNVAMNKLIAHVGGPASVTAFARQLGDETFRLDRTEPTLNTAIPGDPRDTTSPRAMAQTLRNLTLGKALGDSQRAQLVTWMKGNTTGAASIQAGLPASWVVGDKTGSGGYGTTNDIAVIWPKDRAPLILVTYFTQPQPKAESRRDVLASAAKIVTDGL
The data set can be described thus: SBL inhibition, CTX-M-15. Conditions: read-out: residual activity CTX-M-15. It counts as biochemical. As for the experimental part: as §1, §2, §3, §4, §5

The next data set has as its target T3, AmpC (Escherichia coli, UniProt P00811).
T3 construct: made in house
The data set can be described thus: SBL inhibition, AmpC. The following applies: read-out: residual activity AmpC. It counts as biochemical, E. coli. Here is the method:
as §1, §2, §3, §4, §5

For a further data set, the target named is T4, OXA-10 (Pseudomonas aeruginosa, UniProt P14489).
T4 construct: made in house
T4 sequence (P14489 20-266, species assumed): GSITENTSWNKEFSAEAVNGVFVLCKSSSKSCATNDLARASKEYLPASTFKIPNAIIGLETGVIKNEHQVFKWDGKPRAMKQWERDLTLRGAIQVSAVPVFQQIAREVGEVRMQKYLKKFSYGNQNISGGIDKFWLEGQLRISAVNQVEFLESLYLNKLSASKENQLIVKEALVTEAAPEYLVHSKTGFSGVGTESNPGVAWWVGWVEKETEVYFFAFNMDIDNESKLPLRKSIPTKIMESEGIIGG
As to the kind of experiment: SBL inhibition, OXA-10. In kind it is biochemical. The following applies: read-out: residual activity OXA-10. As for the experimental part:
as §1, §2, §3, §4, §5

A further data set concerns the target T5, BcII (Bacillus cereus, UniProt P04190).
T5 construct: made in house
As to the kind of experiment: biochemical. Conditions: enethiols 6 assayed as sodium salts; 10 min incubation; read-out: IC50 BcII (converted).

In another data set the target is T6, NDM-1 (Klebsiella pneumoniae, UniProt C7C422).
T6 construct: made in house
T6 sequence (C7C422 29-270, looked up, species assumed): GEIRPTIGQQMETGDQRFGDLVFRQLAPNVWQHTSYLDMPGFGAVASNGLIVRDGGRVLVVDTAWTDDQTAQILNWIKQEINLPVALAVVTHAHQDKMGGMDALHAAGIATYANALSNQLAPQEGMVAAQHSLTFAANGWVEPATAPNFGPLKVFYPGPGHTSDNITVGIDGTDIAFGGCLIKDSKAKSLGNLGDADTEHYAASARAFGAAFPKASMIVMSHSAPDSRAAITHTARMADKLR
As to the kind of experiment: NDM-1 inhibition, fluorogenic cephalosporin (FC5) hydrolysis. It counts as biochemical. The following applies: enethiols 6 assayed as sodium salts; 10 min incubation; read-out: IC50 NDM-1.

A further data set has as its target T7, VIM-2 (Escherichia coli, UniProt Q5U7L7).
T7 construct: made in house
As to the kind of experiment: biochemical. Conditions: enethiols 6 assayed as sodium salts; 10 min incubation; read-out: IC50 VIM-2 (converted).

A short description of data set [1]: 1H NMR time course stability (hydrolysis) test. It counts as physicochemical. The following applies: 200 µM, pH 7.5, presence or absence of NDM-1, timescale of the inhibition studies. As for the experimental part: NMR experiments were carried out using a Bruker Avance III 700 MHz machine equipped with a TCI inverse cryoprobe or a Bruker Avance III HD 600 MHz spectrometer equipped with a Prodigy cryoprobe at 298 K. Data were analysed using Bruker Topspin 3.5. Processing of spectra was done with a Lorentzian line broadening of 0.3 Hz. Chemical shifts (δ) are given as parts per million (ppm) relative to residual HDO (δH 4.70 ppm for ^1H NMR).
For rhodanine stability studies solutions were buffered in either freshly prepared NH4HCO3 (50 mM, pH 7.50) or Tris-d11 (50 mM, pH 7.50) both with NaCl (100 mM) in D2O. ML302 stock solution (50 mM in DMSO‑d6) was added to a sample to give a final concentration of 200 µM. When specified, NDM-1 was added to give a final concentration of 1 µM. The reaction was followed at 1 h intervals over 18 h (Figs. S7 and S8).
Figure S7. […] A, 10 (200 µM) in NH4HCO3 (50 mM, pH
7.5 in D2O) in the absence of NDM-1, 1H NMR time course over 18 hours; B, 10 (200 µM) in NH4HCO3 (50 mM, pH 7.5 in D2O) in the presence of NDM-1 (1 µM), 1H NMR time course over 18 hours; C, 10 (200 µM) in Tris-d11 (50 mM, pH 7.5 in D2O) in the absence of NDM-1, 1H NMR time course over 18 hours; D, 10 (200 µM) in Tris-d11 (50 mM, pH 7.5 in D2O) and in the presence of NDM-1 (1 µM), 1H NMR time course over 18 hours. […]

The target of another data set is SPM-1 (Pseudomonas aeruginosa, UniProt Q8G9Q0). As to the kind of experiment: SPM-1 inhibition, fluorogenic cephalosporin (FC5) hydrolysis. The following applies: enethiols 6 assayed as sodium salts; 10 min incubation; read-out: IC50 SPM-1 (converted). In kind it is biochemical.
Chain of SPM-1 (Q8G9Q0 entry or part of it): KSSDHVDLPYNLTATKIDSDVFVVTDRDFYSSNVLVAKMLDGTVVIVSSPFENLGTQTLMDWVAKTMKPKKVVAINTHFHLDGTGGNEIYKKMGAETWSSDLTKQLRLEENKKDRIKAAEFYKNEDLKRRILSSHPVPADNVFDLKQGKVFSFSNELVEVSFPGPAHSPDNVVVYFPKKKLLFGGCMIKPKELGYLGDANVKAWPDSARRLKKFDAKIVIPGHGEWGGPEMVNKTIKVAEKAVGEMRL

T3 sequence (P00811 20-377): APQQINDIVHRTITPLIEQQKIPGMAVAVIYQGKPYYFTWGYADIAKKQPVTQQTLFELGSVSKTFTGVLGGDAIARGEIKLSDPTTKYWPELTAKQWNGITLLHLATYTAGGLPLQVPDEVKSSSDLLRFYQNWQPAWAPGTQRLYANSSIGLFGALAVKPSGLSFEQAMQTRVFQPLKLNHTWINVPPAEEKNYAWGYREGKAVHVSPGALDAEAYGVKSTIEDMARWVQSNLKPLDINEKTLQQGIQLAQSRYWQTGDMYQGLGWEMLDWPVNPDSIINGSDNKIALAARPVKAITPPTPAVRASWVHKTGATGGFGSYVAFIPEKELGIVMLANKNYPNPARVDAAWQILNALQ
T1 sequence (P62593 24-286 limits assumed): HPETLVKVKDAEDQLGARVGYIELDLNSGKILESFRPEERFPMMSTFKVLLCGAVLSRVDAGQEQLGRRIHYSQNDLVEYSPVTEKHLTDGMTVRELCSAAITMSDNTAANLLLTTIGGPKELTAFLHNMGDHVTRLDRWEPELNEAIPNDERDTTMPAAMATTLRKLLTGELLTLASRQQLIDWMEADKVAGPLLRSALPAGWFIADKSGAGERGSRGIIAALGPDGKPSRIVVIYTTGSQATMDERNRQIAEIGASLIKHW
T5 sequence (P04190 31-257): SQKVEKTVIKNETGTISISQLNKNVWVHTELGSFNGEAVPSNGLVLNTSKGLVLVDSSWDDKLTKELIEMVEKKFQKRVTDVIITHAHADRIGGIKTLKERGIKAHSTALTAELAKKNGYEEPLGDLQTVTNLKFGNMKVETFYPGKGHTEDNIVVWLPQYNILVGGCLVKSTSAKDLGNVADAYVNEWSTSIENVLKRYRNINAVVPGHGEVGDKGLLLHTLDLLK

On to `CN1CCN(NC(=O)CN2C(=O)/C(=C/c3c4ccccc4cc4ccccc34)SC2=S)CC1` [Compound 5r], for which the remaining activity at 200 µM was ~6% on TEM-1, ~40% on CTX-M-15, ~18% on AmpC and ~47% at OXA-10.
As usually defined, the IC50 is the concentration that gives 50% inhibition. `O=C(O)/C(S)=C/c1c2ccccc2cc2ccccc12` [Compound 6r]: the IC50 at BcII was > 50000 nM; on NDM-1, 1700 ± 600 nM; at VIM-2 it was 50 ± 1 nM. Further, the remaining activity at 200 µM on TEM-1 was ~1%; at CTX-M-15, ~65%; at AmpC, ~41%; at OXA-10 it was ~47%.
Take `CN1CCN(NC(=O)CN2C(=O)S/C(=C\c3c(Cl)ccc(Cl)c3Cl)C2=O)CC1` [Compound 10]: the IC50 on BcII was 600 ± 50 nM; at NDM-1, > 50000 nM; at SPM-1, 500 ± 40 nM; at VIM-2, 200 ± 20 nM. In addition, the “hydrolysis by 1H NMR (700 MHz)” value in data set [1] is on record as “did not observe hydrolysis”.

For the origin of these results see publication PMC6008492, “Structure activity relationship studies on rhodanines and derived enethiol inhibitors of metallo-β-lactamases” (Bioorganic & Medicinal Chemistry, 2018).
